Tests used:
FoxM1 = assay: Alternative splicing of FoxM1 in SMA Type 1 patient fibroblasts (RT-qPCR); type: cell-based; details: Homo sapiens, Fibroblast, 24 hours, read-out: EC50 for FoxM1 full-length (FL) mRNA
Description: FIG. 4: Alternative Splicing of FoxM1 In Vitro • SMA Type 1 patient fibroblasts were treated with RO7034067 for 24 hours, and FoxM1 full-length (FL) and exon 9-lacking (Δ9) mRNAs were analyzed by RT-qPCR. Data represent means±SEM of 6 repetitions and are expressed as fold change vs. untreated controls.
FoxM1, a gene alternatively spliced by other splicing modifier compounds, encodes a cell cycle regulator. […] Increased abundance of the FoxM1A isoform, together with decreased abundance of FoxM1 isoforms lacking exon 9, has the capability to disturb and inhibit cell cycle progression if splicing changes are at a level that is biologically significant. Thus, RO7034067 acts in a similar way on the SMN2 and FoxM1 splicing machinery, but with opposing outcomes with regard to protein function. MADD, a gene involved in apoptosis processes, has also been identified as a secondary splice target.

MADD gene transcript = assay: 2-week dose-range finding toxicity study in cynomolgus monkey: MADD splicing in spleen, duodenum, testis; type: in vivo; details: cynomolgus monkey 2 weeks, highest dose (0.75, 1.5, 3 and 6 mg/kg/day tested); all three organs
Description: Similar investigations were integrated into the 2-week dose-range finding toxicity study conducted in the cynomolgus monkey with RO7034067. For this purpose, spleen, duodenum, and testis were analyzed from the animals treated with 0.75, 1.5, 3 and 6 mg/kg/day. […] Since secondary pharmacology was detected in spleen, this organ was further analyzed for transcriptome-wide mRNA splicing or expression changes by RNA-sequencing. […] Furthermore, a dose-dependent trend for pathway expression changes was not detected. Therefore, while the few changes in RO7034067-mediated alternative transcript splicing are consistent with in vitro data and those of other SMN2 splicing modifiers, they seem not to fundamentally affect biological pathways or processes under the conditions of this study.

FMO3 = target: T1, FMO3 (Homo sapiens, UniProt P31513); assay: Elimination pathway; type: in vitro ADME
T1 sequence (P31513 1-532): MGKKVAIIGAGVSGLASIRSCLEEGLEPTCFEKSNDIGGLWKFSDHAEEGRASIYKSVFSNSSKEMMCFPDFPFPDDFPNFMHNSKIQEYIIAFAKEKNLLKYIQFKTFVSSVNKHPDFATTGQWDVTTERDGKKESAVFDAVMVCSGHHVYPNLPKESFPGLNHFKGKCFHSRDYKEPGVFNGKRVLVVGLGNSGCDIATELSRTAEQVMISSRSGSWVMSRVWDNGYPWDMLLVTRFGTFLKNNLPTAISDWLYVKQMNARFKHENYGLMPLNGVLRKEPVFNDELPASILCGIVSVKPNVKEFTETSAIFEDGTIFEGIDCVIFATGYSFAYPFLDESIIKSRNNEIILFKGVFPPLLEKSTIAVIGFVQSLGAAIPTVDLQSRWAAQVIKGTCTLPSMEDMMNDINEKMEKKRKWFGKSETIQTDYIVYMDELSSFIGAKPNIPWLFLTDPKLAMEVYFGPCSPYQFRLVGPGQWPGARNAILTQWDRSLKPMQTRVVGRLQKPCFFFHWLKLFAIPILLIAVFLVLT

`Cc1cn2nc(-c3cc(=O)n4cc(N5CCNC6(CC6)C5)ccc4n3)cc(C)c2n1` [RO7034067, 7-(4,7-diazaspiro[2.5]octan-7-yl)-2-(2,8-dimethylimidazo[1,2-b]pyridazin-6-yl)pyrido[1,2-a]pyrimidin-4-one] was tested, and the EC50 (FoxM1) was 0.067 ± 0.032 µM, the “mRNA isoform specific qPCR of MADD gene transcript” value (MADD gene transcript) was “secondary pharmacological response” and the elimination pathway (FMO3) was “FMO3 participates on the elimination path way”.

Reference: US12350273B2, “Treatment of SMA” (Hoffmann-La Roche Inc., priority 2017, dated 2025)
